Reference: ChEMBL document CHEMBL5727720, “Bruton's tyrosine kinase inhibitors” (2020)

Biological target: Tyrosine-protein kinase BTK (Homo sapiens, UniProt Q06187)
Test: Kinase Assay: Measurements were performed in a reaction volume of 15 μL using 384-well assay plates. Kinase enzyme, inhibitor, ATP and 1 μM peptide substrate were incubated in a reaction buffer compose of Hepes 50 mM (pH7.0), NaN3 0.02%, BSA 0.01%, Orthocanadate 0.1 mM. After one hour, the kinase reaction was quenched by the addition of […] antibody and XL-665 in 1×Detection buffer containing 60 mM EDTA (Cisbio), and the mixture was allowed to incubate for one hour. The HTRF signal was measured on a multimode plate reader (EnVision® Multilabel Reader, Perkin Elmer) with an excitation wavelength (λEx) of 330 nm and detection wavelengths (λEm) of 615 and 665 nm. Activity was determined by the ratio of the fluorescence at 665 nm to that at 615 nm. For each compound, enzyme activity as measured at various concentrations of compound, Negative control reactions were performed in the absence of inhibitor in two replicates and eight no enzyme controls.

Sequence of Tyrosine-protein kinase BTK (Q06187 whole entry): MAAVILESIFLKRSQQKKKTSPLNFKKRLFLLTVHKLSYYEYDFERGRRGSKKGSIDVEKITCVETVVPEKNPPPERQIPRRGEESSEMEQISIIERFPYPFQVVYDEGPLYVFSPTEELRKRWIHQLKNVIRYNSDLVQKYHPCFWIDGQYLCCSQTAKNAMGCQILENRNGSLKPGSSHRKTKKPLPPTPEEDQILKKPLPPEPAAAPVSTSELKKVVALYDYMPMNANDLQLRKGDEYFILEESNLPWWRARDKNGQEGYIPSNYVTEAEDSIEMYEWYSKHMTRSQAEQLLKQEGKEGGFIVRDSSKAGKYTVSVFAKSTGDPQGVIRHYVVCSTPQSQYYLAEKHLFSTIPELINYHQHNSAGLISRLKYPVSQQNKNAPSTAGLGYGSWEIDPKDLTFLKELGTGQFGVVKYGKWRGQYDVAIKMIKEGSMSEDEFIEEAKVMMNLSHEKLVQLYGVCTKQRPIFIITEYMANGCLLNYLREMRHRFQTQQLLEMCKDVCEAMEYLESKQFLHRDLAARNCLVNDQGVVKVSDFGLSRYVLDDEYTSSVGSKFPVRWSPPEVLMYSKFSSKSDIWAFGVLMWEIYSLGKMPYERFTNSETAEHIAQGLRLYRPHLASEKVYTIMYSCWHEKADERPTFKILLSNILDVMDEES

SMILES | IC50 [nM]
C=CC(=O)N1CCC[C@@H](n2nc(-c3ccc(Oc4cccc(OC)c4Cl)cc3)c3cncc(OC)c32)C1 | < 10
C=CC(=O)N1CCC[C@@H](n2nc(-c3ccc(Oc4cccc(OC)c4Cl)cc3)c3cncc(OC(C)C)c32)C1 | < 10
C=CC(=O)N1CC[C@@H](n2nc(-c3ccc(Oc4cccc(OC)c4Cl)cc3)c3cncc(OCC)c32)C1 | < 10
C=CC(=O)N1CCC[C@@H](n2nc(-c3ccc(Oc4cccc(OC)c4Cl)cc3)c3cncc(OCC)c32)C1 | < 10

Now from value to molecule:

IC50 [nM] | SMILES
< 10 | C=CC(=O)N1CCC[C@@H](n2nc(-c3ccc(Oc4cccc(OC)c4Cl)cc3)c3cncc(OC4CCOC4)c32)C1 (some centres not stated)
< 10 | C=CC(=O)N1CCC[C@@H](n2nc(-c3ccc(Oc4cccc(OC)c4Cl)cc3)c3cncc(OCCCC)c32)C1
< 10 | C=CC(=O)N1CCC[C@@H](n2nc(-c3ccc(Oc4cccc(OC)c4Cl)cc3)c3cncc(OCCC)c32)C1
